Patent publication US20220324835A1 (Nurix Therapeutics, Inc., priority 2018, published 2022)

Each compound was assayed against Cbl-b (Homo sapiens, UniProt Q13191) (assay: Cbl-b activity assay (Cbl-b inhibition assay), TR-FRET of Cbl-b interaction with UbcH5B-Ub). Conditions: * assay buffer containing 50 mM NaCl instead of 100 mM NaCl and 30 nM Src kinase instead of 60 nM; read-out: Cbl-b activity IC50 (μM)*.
Format: biochemical
Method: The ability of candidate compounds to inhibit Cbl-b activity was measured by monitoring the interaction of Cbl-b with UbcH5B-Ub in the presence of the candidate compound.
Fluorescently labeled UbcH5B-Ub was prepared by conjugating ubiquitin (Ub), labeled at its N-terminus with Bodipy-Fluorescein, to UbcH5B, an E2 enzyme, harboring a cysteine to lysine mutation at position 85. […] After incubation in the presence of the candidate compound, the plate was incubated for an additional 1.5 hours in the presence of 60 nM Src kinase with 1 mM ATP and 5 mM MgCl2 (final concentrations). […] The plate was incubated for 1 hour.
Column marked with an asterisk (*) were tested as described above with assay buffer containing 50 mM NaCl instead of 100 mM NaCl and 30 nM Src kinase instead of 60 nM Src kinase. The resulting data for the Cbl-b binding assay was solvent corrected and double referenced prior to analysis. All data were globally fit to a steady-state affinity and kinetic binding model where applicable). Fit parameters were derived from a 1:1 binding model using the Biacore T200 Evaluation Software V2.0 (GE Healthcare) (Table 2).

Chain of Cbl-b (Q13191 36-427): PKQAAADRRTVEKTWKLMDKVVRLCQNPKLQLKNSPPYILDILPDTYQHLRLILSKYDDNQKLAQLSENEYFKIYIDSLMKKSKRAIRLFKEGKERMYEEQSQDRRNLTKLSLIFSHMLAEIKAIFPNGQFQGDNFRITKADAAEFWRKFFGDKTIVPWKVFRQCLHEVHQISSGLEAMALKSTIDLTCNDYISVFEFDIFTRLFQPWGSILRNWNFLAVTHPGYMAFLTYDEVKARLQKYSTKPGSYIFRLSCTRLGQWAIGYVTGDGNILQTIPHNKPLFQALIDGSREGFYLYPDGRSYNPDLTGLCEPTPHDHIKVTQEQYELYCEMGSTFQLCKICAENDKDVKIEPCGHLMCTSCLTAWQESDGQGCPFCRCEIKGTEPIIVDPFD

| Structure (SMILES) | IC50 [µM] |
| --- | --- |
| CC(Sc1nncn1C)c1cc(CO)cc(NC(=O)c2ccc3ccccc3n2)c1 (centres unmarked) [Compound 132, N-(3-(hydroxymethyl)-5-(1-(4-methyl-4H-1,2,4-triazol-3-ylthio)ethyl)phenyl)quinoline-2-carboxamide] | > 10 |
| CC(Sc1nccn1C)c1ccc(F)c(NC(=O)c2cccc(C(F)(F)F)n2)c1 (centres unmarked) [Compound 101, N-[2-fluoro-5-[1-(1-methylimidazol-2-yl)sulfanylethyl]phenyl]-6-(trifluoro-methyl)pyridine-2-carboxamide] | 3 to 10 |
| C[C@@H](Sc1nncn1C)c1ccnc(NC(=O)c2cccc(C(F)(F)F)n2)c1 [Compound 102a, (R)-N-(4-(1-((4-methyl-4H-1,2,4-triazol-3-yl)thio)ethyl)pyridin-2-yl)-6-(trifluoromethyl)picolinamide] | 3 to 10 |
| CC(Sc1nncn1C)c1cccc(NC(=O)c2ccc3ccc(Cl)cc3n2)c1 (centres unmarked) [Compound 16, 7-Chloro-N-(3-(1-((4-methyl-4H-1,2,4-triazol-3-yl)thio)ethyl)phenyl)quinoline-2-carboxamide] | 3 to 10 |
| CC(Sc1nncn1C)c1cccc(NC(=O)c2ccc3cccnc3n2)c1 (centres unmarked) [Compound 18, N-(3-(1-((4-Methyl-4H-1,2,4-triazol-3-yl)thio)ethyl)phenyl)-1,8-naphthyridine-2-carboxamide] | 3 to 10 |
| Cc1ccc(C(=O)Nc2cccc([C@H](C)Sc3nncn3C)c2)cc1C [Compound 27, (S)-3,4-Dimethyl-N-(3-(1-((4-methyl-4H-1,2,4-triazol-3-yl)thio)ethyl)phenyl)benzamide] | 3 to 10 |
| Cc1ccc2ccc(C(=O)Nc3cccc(C(C)Sc4nncn4C)c3)nc2n1 (centres unmarked) [Compound 21, 7-Methyl-N-(3-(1-((4-methyl-4H-1,2,4-triazol-3-yl)thio)ethyl)phenyl)-1,8-naphthyridine-2-carboxamide] | > 10 |
| CC(Sc1nncn1C)c1cccc(NC(=O)c2ccc3ncccc3n2)c1 (centres unmarked) [Compound 20, N-(3-(1-((4-Methyl-4H-1,2,4-triazol-3-yl)thio)ethyl)phenyl)-1,5-naphthyridine-2-carboxamide] | 3 to 10 |
| CC(Sc1nccn1C)c1cccc(NC(=O)c2cc3ccccc3cn2)c1 (centres unmarked) [Compound 100, N-[3-[1-(1-methylimidazol-2-yl)sulfanylethyl]phenyl]isoquinoline-3-carboxamide] | 3 to 10 |
| CC(Sc1nncn1C)c1cccc(NC(=O)c2cc3ccc(Cl)cc3cn2)c1 (centres unmarked) [Compound 25, 7-Chloro-N-(3-(1-((4-methyl-4H-1,2,4-triazol-3-yl)thio)ethyl)phenyl)isoquinoline-3-carboxamide] | 1 to 3 |
| CC(Sc1nncn1C)c1cccc(N2Cc3c(cccc3C(F)(F)F)C2=O)c1 (centres unmarked) [Compound 166, 2-(3-(1-((4-methyl-4H-1,2,4-triazol-3-yl)thio)ethyl)phenyl)-4-(trifluoromethyl)isoindolin-1-one] | 0.301 to 1 |
| Cc1cnc(C(=O)Nc2cccc([C@H](C)Sc3nncn3C)c2)cc1C [Compound 36, (S)-4,5-Dimethyl-N-(3-(1-((4-methyl-4H-1,2,4-triazol-3-yl)thio)ethyl)phenyl)picolinamide] | 1 to 3 |
| CC(Sc1nncn1C)c1cccc(N2Cc3ccccc3C2=O)c1 (centres unmarked) [Compound 162, 2-[3-[1-[(4-methyl-1,2,4-triazol-3-yl)sulfanyl]ethyl]phenyl]isoindolin-1-one] | 3 to 10 |
| CC(Sc1nncn1C)c1cccc(NC(=O)c2cc3ccncc3cn2)c1 (centres unmarked) [Compound 19, N-(3-(1-((4-Methyl-4H-1,2,4-triazol-3-yl)thio)ethyl)phenyl)-2,7-naphthyridine-3-carboxamide] | 3 to 10 |
| CC(Sc1nncn1C)c1cccc(NC(=O)c2cc3c(cn2)CCCC3)c1 (centres unmarked) [Compound 24, N-(3-(1-((4-Methyl-4H-1,2,4-triazol-3-yl)thio)ethyl)phenyl)-5,6,7,8-tetrahydroisoquinoline-3-carboxamide] | 3 to 10 |
| CC(Sc1nncn1C)c1cccc(NC(=O)c2cc3ccccc3c(=O)[nH]2)c1 (centres unmarked) [Compound 22, N-(3-(1-((4-Methyl-4H-1,2,4-triazol-3-yl)thio)ethyl)phenyl)-1-oxo-1,2-dihydroisoquinoline-3-carboxamide] | > 10 |
| CC(Sc1nncn1C)c1ccnc(N2Cc3ccccc3C2=O)c1 (centres unmarked) [Compound 171, 2-(4-(1-((4-methyl-4H-1,2,4-triazol-3-yl)thio)ethyl)pyridin-2-yl)isoindolin-1-one] | 3 to 10 |
| Cc1ccc2cc(C(=O)Nc3cccc(C(C)Sc4nncn4C)c3)cnc2c1 (centres unmarked) [Compound 15, 7-Methyl-N-(3-(1-(4-methyl-4H-1,2,4-triazol-3-ylthio)ethyl)phenyl)quinoline-3-carboxamide] | > 10 |
| CC(C)c1ccnc(C(=O)Nc2cccc([C@H](C)Sc3nncn3C)c2)c1 [Compound 37, (S)-4-Isopropyl-N-(3-(1-((4-methyl-4H-1,2,4-triazol-3-yl)thio)ethyl)phenyl)picolinamide] | 3 to 10 |
| Cc1cc(C(=O)Nc2cccc([C@H](C)Sc3nncn3C)c2)ccc1Cl [Compound 28, (S)-4-Chloro-3-methyl-N-(3-(1-((4-methyl-4H-1,2,4-triazol-3-yl)thio)ethyl)phenyl)benzamide] | 1 to 3 |

Same assay, conditions: assay buffer with 100 mM NaCl, 60 nM Src kinase; read-out: Cbl-b activity IC50

| Structure (SMILES) | IC50 [µM] |
| --- | --- |
| Cc1conc1C[C@H](C)c1cccc(N2Cc3c(cccc3C(F)(F)F)C2=O)c1 [Compound 367b, (S)-2-(3-(1-(4-methylisoxazol-3-yl)propan-2-yl)phenyl)-4-(trifluoromethyl)isoindolin-1-one] | 1 to 3 |
| Cc1cnnn1C[C@H](C)c1cccc(NC(=O)c2cccc(C(F)(F)F)n2)c1 [Compound 312b, (R)-N-(3-(1-(5-methyl-1H-1,2,3-triazol-1-yl)propan-2-yl)phenyl)-6-(trifluoromethyl)picolinamide] | 1 to 3 |
| Cc1[nH]cnc1C[C@@H](C)c1cccc(N2Cc3c(cccc3C(F)(F)F)C2=O)c1 [Compound 272a, 2-[3-[(2R)-1-(5-methyl-1H-imidazol-4-yl)propan-2-yl]phenyl]-4-(trifluoromethyl)isoindolin-1-one] | 0.1 to 0.3 |
| CCn1cnnc1CC1(c2cccc(NC(=O)c3cc(C)nc(C4CC4)n3)c2)COC1 [Example 705, 2-cyclopropyl-N-(3-{3-[(4-ethyl-1,2,4-triazol-3-yl)methyl]oxetan-3-yl}phenyl)-6-methylpyrimidine-4-carboxamide] | 3 to 10 |
| C[C@H](Cc1nncn1C)c1cccc(N2Cc3c(ccnc3C(C)(C)F)C2=O)c1 [Compound 373, 4-(2-fluoropropan-2-yl)-2-[3-[(2R)-1-(4-methyl-4H-1,2,4-triazol-3-yl)propan-2-yl]phenyl]-1H,2H,3H-pyrrolo[3,4-c]pyridin-1-one] | 0.301 to 1 |
| Cn1cnnc1C(F)[C@@](C)(F)c1cccc(N2Cc3c(cccc3C(F)(F)F)C2=O)c1 (stereo in doubt) [Compound 478b, 2-(3-((1R,2S)-1,2-difluoro-1-(4-methyl-4H-1,2,4-triazol-3-yl)propan-2-yl)phenyl)-4-(trifluoromethyl)isoindolin-1-one] | 1 to 3 |
| C[C@H](Cc1nncs1)c1cccc(N2Cc3c(cccc3C(F)(F)F)C2=O)c1 [Compound 368, (R)-2-(3-(1-(1,3,4-thiadiazol-2-yl)propan-2-yl)phenyl)-4-(trifluoromethyl)isoindolin-1-one] | 0.301 to 1 |
| Cn1cnnc1[C@@H](F)[C@@](C)(F)c1cccc(N2Cc3c(cc(C4CC4)cc3C(F)(F)F)C2=O)c1 [Compound 481b, 6-cyclopropyl-2-[3-[(1R,2S)-1,2-difluoro-1-(4-methyl-4H-1,2,4-triazol-3-yl)propan-2-yl]phenyl]-4-(trifluoromethyl)-2,3-dihydro-1H-isoindol-1-one] | 1 to 3 |
| C[C@H](Cc1nncn1C)c1cc(NC2(C)COC2)nc(N2Cc3c(cccc3C(F)(F)F)C2=O)c1 [Compound 349, 2-{4-[(2R)-1-(4-methyl-4H-1,2,4-triazol-3-yl)propan-2-yl]-6-[(3-methyloxetan-3-yl)amino]pyridin-2-yl}-4-(trifluoromethyl)-2,3-dihydro-1H-isoindol-1-one] | 0.301 to 1 |
| Cn1cnnc1C[C@@H](c1cccc(N2Cc3c(cccc3C(F)(F)F)C2=O)c1)C(F)(F)F [Compound 471b, (S)-2-(3-(1,1,1-trifluoro-3-(4-methyl-4H-1,2,4-triazol-3-yl)propan-2-yl)phenyl)-4-(trifluoromethyl)isoindolin-1-one] | 3 to 10 |
| C[C@@H](Sc1nncn1C)c1ccc(F)c(N2Cc3c(cccc3C(F)(F)F)C2=O)c1 [Compound 170, 2-[2-Fluoro-5-[(1R)-1-[(4-methyl-1,2,4-triazol-3-yl)sulfanyl]ethyl]phenyl]-4-(trifluoromethyl)isoindolin-1-one] | > 10 |
| C[C@@H](Cc1n[nH]cc1CO)c1cccc(N2Cc3c(cccc3C(F)(F)F)C2=O)c1 [Compound 271a, (S)-2-(3-(1-(4-(hydroxymethyl)-1H-pyrazol-3-yl)propan-2-yl)phenyl)-4-(trifluoromethyl)isoindolin-1-one] | > 10 |
